The data set in a line: Dissolution times of calcium and magnesium in water at pH 7. The class given is physicochemical. Particulars: water pH 7. Here is the method:
The dissolution times for calcium and magnesium were measured by dissolving each in a solution of water having a pH of 7. 331 mg of calcium was placed in a beaker containing the solution an allowed to dissolve. 165 mg of magnesium was then placed in a second beaker and dissolved. The results are listed below in Table 1 and shown graphically in FIG. 1.

Turning to `[Ca+2]` [CALCIUM, calcium], the “Dissolution, percent (%)” value came out at 0% (dissolution time 0 min); 99.7% (dissolution time 15 min); 98.79% (dissolution time 30 min); 98.19% (dissolution time 45 min); 99.09% (dissolution time 60 min); 96.79% (dissolution time 75 min). Besides, the “Dissolution, percent (%)” value is given as 97.89% (dissolution time 90 min), 100% (dissolution time 105 min) and 99.09% (dissolution time 120 min).

With `[Mg+2]` [MAGNESIUM, magnesium], the “Dissolution, percent (%)” value came out at 0% (dissolution time 0 min); 4.93% (dissolution time 30 min); 10.61% (dissolution time 60 min); 16.48% (dissolution time 90 min); 21.76% (dissolution time 120 min); 26.61% (dissolution time 150 min). Besides, the “Dissolution, percent (%)” value by setting is: (dissolution time 180 min) 31.82%; (dissolution time 210 min) 36.67%; (dissolution time 240 min) 41.82%; (dissolution time 270 min) 46.79%; (dissolution time 300 min) 50.67%; (dissolution time 330 min) 55.21%. In addition, where the note is “dissolution time 360 min”, the “Dissolution, percent (%)” value is 58.91%.

(Values after patent US6887492B2, “Magnesium plus interactive agent delivery” (Leiner Health Services Corp., priority 2000, dated 2005).)
